From US11667621B2, “Antiestrogen compounds” (STEVENS INSTITUTE OF TECHNOLOGY, priority 2018, dated 2023)
Residue numbers refer to the chain shown, from its start.

Tests used:
Type in all cases: cell-based
CRISPR KI Y537S = biological target: T1, CRISPR KI Y537S (Homo sapiens, UniProt P03372, Y537S); assay: Luciferase assay, CRISPR KI Y537S clones; parameters: concentration or dose not given beside the values; conditions: for CRISPR KI (% Inhibition) Y537S cl. 4: clone 4; for CRISPR KI (% Inhibition) Y537S cl. 24: clone 24
T1 construct: endogenous in cells; host or cells: CRISPR knock-in clones (cl. 4, cl. 24)
T1 sequence (P03372 1-595 Y537S): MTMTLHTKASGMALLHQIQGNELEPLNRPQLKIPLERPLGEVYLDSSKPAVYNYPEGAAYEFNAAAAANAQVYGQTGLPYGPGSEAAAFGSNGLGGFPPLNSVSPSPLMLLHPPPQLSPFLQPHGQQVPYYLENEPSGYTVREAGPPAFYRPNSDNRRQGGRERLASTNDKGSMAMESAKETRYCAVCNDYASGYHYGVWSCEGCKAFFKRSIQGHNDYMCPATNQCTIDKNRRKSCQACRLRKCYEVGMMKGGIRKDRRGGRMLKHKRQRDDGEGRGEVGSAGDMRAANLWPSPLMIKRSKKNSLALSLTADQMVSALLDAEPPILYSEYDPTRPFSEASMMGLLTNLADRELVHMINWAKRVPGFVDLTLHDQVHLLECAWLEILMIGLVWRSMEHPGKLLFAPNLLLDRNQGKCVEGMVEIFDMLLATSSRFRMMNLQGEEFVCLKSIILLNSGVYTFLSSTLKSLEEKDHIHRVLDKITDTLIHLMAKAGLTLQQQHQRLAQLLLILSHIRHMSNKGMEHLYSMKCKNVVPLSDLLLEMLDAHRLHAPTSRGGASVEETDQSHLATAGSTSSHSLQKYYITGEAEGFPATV
Experimental: (§1) Luciferase assays were performed to determine the efficacy of the example compounds at inhibiting ER or its mutants' ability to activate transcription of genes.
(§2) Cells were plated at a density of 0.15×10^6 per well of 24 well plates one day prior to transfection. Cells were transfected with 125 ng (per well) of HA-ERα wild type or mutants, 315 ng (per well) of 3×-ERE-TATA-Luciferase reporter and 50 ng (per well) of pRL-TK Renilla Luciferase plasmid, using Xtremegene (Roche). The cells were treated with the various compounds or Fulvestrant at the indicated doses a day after transfection for 24 hours and luciferase activities were determined using the Dual-Luciferase® Reporter Assay System (Promega) according to manufacturer's instructions. Luciferase bioluminescence measurements were performed with the Veritas™ Microplate Luminometer (Promega). All experiments were conducted in triplicate and the Firefly luciferase activity was normalized with the Renilla luciferase activity of each sample.

HA-ERα wild type = biological target: T2, HA-ERα wild type (Homo sapiens, UniProt P03372); assay: Luciferase assay, overexpressed ER (3×-ERE-TATA-Luciferase reporter); conditions: compound concentration 1 μM, 24 hours; read-out: Overexpressed ER (% Inhibition) WT
T2 construct: HA; expressed in transfected cells
T2 sequence (P03372 1-595): T1 sequence (P03372 1-595 Y537S) with S537Y
Experimental: as §1, §2

HA-ERα Y537S = biological target: T3, HA-ERα Y537S (Homo sapiens, UniProt P03372, Y537S); assay: as above; conditions: compound concentration 1 μM, 24 hours
T3 construct: HA; expressed in transfected cells
T3 sequence (P03372 1-595 Y537S): T1 sequence (P03372 1-595 Y537S)
Experimental: as §1, §2

HA-ERα D538G = biological target: T4, HA-ERα D538G (Homo sapiens, UniProt P03372, D538G); assay: as above; conditions: compound concentration 1 μM, 24 hours
T4 construct: HA; expressed in transfected cells
T4 sequence (P03372 1-595 D538G): T1 sequence (P03372 1-595 Y537S) with S537Y, D538G
Experimental: as §1, §2

HA-ERα L536R = biological target: T5, HA-ERα L536R (Homo sapiens, UniProt P03372, L536R); assay: as above; conditions: compound concentration 1 μM, 24 hours
T5 construct: HA; expressed in transfected cells
T5 sequence (P03372 1-595 L536R): T1 sequence (P03372 1-595 Y537S) with L536R, S537Y
Experimental: as §1, §2

Row | CRISPR KI (% Inhibition) Y537S cl. 4 (CRISPR KI Y537S) [%] | CRISPR KI (% Inhibition) Y537S cl. 24 (CRISPR KI Y537S) [%] | inhibition at 1 µM (HA-ERα wild type) [%] | inhibition at 1 µM (HA-ERα Y537S) [%] | inhibition at 1 µM (HA-ERα D538G) [%] | inhibition at 1 µM (HA-ERα L536R) [%] | SMILES
1 | −342 | −421 | 81 | 26 | 88 | 82 | O=C(NCCCCOc1ccc(C(=C2C3CC4CC(C3)CC2C4)c2ccc(O)cc2)cc1)[C@H]1CC[C@H](C(F)(F)F)CC1 [Example 14, (trans)-N-(4-(4-(Adamantan-2-ylidene(4-hydroxyphenyl)methyl)phenoxy)-butyl)-4-(trifluoromethyl)cyclohexanecarboxamide]
2 | −187 | −108 | 84 | 62 | 87 | 70 | O=C(NCCCCOc1ccc(C(=C2C3CC4CC(C3)CC2C4)c2ccc(O)cc2)cc1)C12CC3CC(CC(C3)C1)C2 [Example 6, N-(4-(4-(Adamantan-2-ylidene(4-hydroxyphenyl)methyl)phenoxy)-butyl)adamantane-1-carboxamide]
3 | −70 | −64 | 83 | 46 | 83 | 77 | CC12CC3CC(C)(C1)CC(C(=O)NCCCCOc1ccc(C(=C4C5CC6CC(C5)CC4C6)c4ccc(O)cc4)cc1)(C3)C2 [Example 7, N-(4-(4-(Adamantan-2-ylidene(4-hydroxyphenyl)methyl)phenoxy)butyl)-3,5-dimethyladamantane-1-carboxamide]
4 | −334 | −327 | 90 | 46 | 92 | 90 | O=C(NCCCCOc1ccc(C(=C2C3CC4CC(C3)CC2C4)c2ccc(O)cc2)cc1)C1CCC(F)(F)CC1 [Example 13, N-(4-(4-(Adamantan-2-ylidene(4-hydroxyphenyl)methyl)phenoxy)butyl)-4,4-difluorocyclohexanecarboxamide]
5 |  | −496 | 84 | 11 | 89 | 78 | O=C(NCCCCOc1ccc(C(=C2C3CC4CC(C3)CC2C4)c2ccc(O)cc2)cc1)C1CCC1 [Example 10, N-(4-(4-(Adamantan-2-ylidene(4-hydroxyphenyl)methyl)phenoxy)butyl)-cyclobutanecarboxamide]
6 | −74 | −34 | 71 | 62 | 84 | 70 | CC(C)(C)OC(=O)N[C@@H](Cc1c[nH]c2ccccc12)C(=O)NCCCCOc1ccc(C(=C2C3CC4CC(C3)CC2C4)c2ccc(O)cc2)cc1 [Example 1, (S)-tert-Butyl (1-((4-(4-(adamantan-2-ylidene(4-hydroxyphenyl)methyl)-phenoxy)butyl)amino)-3-(1H-indol-3-yl)-1-oxopropan-2-yl)carbamate]
7 | −369 | −384 | 88 | 33 | 92 | 89 | O=C(NCCCCOc1ccc(C(=C2C3CC4CC(C3)CC2C4)c2ccc(O)cc2)cc1)[C@H]1C[C@@H]2C=C[C@H]1C2 [Example 9, (1R, 2S, 4R)—N-(4-(4-(Adamantan-2-ylidene(4-hydroxyphenyl)methyl)phenoxy)-butyl)bicyclo[2.2.1]hept-5-ene-2-carboxamide]
8 | −387 | −249 | 83 | 31 | 89 | 84 | O=C(NCCCCOc1ccc(C(=C2C3CC4CC(C3)CC2C4)c2ccc(O)cc2)cc1)C12CC3CC(CC1C3)C2 [Example 8, N-(4-(4-((Adamantan-2-ylidene)(4-hydroxyphenyl)methyl)phenoxy)butyl)-hexahydro-2,5-methanopentalene-3a(1H)-carboxamide]
9 | −232 | −199 | 90 | 58 | 92 | 87 | O=C(NCCCCOc1ccc(C(=C2C3CC4CC(C3)CC2C4)c2ccc(O)cc2)cc1)C1CCCCCC1 [Example 12, N-(4-(4-(Adamantan-2-ylidene(4-hydroxyphenyl)methyl)phenoxy)butyl)-cycloheptanecarboxamide]
10 | −62 | −10 | 89 | 86 | 91 | 79 | O=C(NCCCCOc1ccc(C(=C2C3CC4CC(C3)CC2C4)c2ccc(O)cc2)cc1)C1CCCCC1 [Example 11, N-(4-(4-(Adamantan-2-ylidene(4-hydroxyphenyl)methyl)phenoxy)butyl)-cyclohexanecarboxamide]
